In the NIST ThermoML archive (doi:10.1021/je500696p):

Assays:
[1] = excess molar enthalpy (molar enthalpy of mixing); xn = mol fraction of the nth substance listed; details: 100 kPa, Liquid, Calvet calorimetry
[2] = xn = mol fraction of the nth substance listed; details: 100 kPa, Liquid, Vibrating tube method

CCCC[N+](C)(C)C.O=S(=O)([N-]S(=O)(=O)C(F)(F)F)C(F)(F)F [butyltrimethylammonium bis(trifluoromethylsulfonyl)imide] + CCCO
Details | excess molar enthalpy [kcal/mol] | mass density [kg/m3]
[1], 308.15 K, x2 = 0.1224 | 0.223 | –
[1], 308.15 K, x2 = 0.2622 | 0.436 | –
[1], 308.15 K, x2 = 0.2665 | 0.442 | –
[1], 308.15 K, x2 = 0.374 | 0.556 | –
[1], 308.15 K, x2 = 0.4927 | 0.622 | –
[1], 308.15 K, x2 = 0.5007 | 0.623 | –
[1], 308.15 K, x2 = 0.5108 | 0.627 | –
[1], 308.15 K, x2 = 0.5118 | 0.63 | –
[1], 308.15 K, x2 = 0.6191 | 0.606 | –
[1], 308.15 K, x2 = 0.744 | 0.532 | –
[1], 308.15 K, x2 = 0.7466 | 0.533 | –
[1], 308.15 K, x2 = 0.7505 | 0.521 | –
[1], 308.15 K, x2 = 0.8709 | 0.354 | –
[1], 313.15 K, x2 = 0.113 | 0.187 | –
[1], 313.15 K, x2 = 0.2393 | 0.374 | –
[1], 313.15 K, x2 = 0.2549 | 0.385 | –
[1], 313.15 K, x2 = 0.3933 | 0.518 | –
[1], 313.15 K, x2 = 0.4936 | 0.569 | –
[1], 313.15 K, x2 = 0.4959 | 0.567 | –
[1], 313.15 K, x2 = 0.499 | 0.568 | –
[1], 313.15 K, x2 = 0.6245 | 0.564 | –
[1], 313.15 K, x2 = 0.7406 | 0.507 | –
[1], 313.15 K, x2 = 0.8666 | 0.369 | –
[1], 323.15 K, x2 = 0.1187 | 0.185 | –
[1], 323.15 K, x2 = 0.2569 | 0.406 | –
[1], 323.15 K, x2 = 0.2694 | 0.422 | –
[1], 323.15 K, x2 = 0.3969 | 0.538 | –
[1], 323.15 K, x2 = 0.527 | 0.6 | –
[1], 323.15 K, x2 = 0.5431 | 0.611 | –
[1], 323.15 K, x2 = 0.6214 | 0.598 | –
[1], 323.15 K, x2 = 0.7499 | 0.548 | –
[1], 323.15 K, x2 = 0.8707 | 0.413 | –
[2], 293.15 K, x2 = 0 | – | 1397.1
[2], 293.15 K, x2 = 0.1273 | – | 1375
[2], 293.15 K, x2 = 0.2596 | – | 1346.9
[2], 293.15 K, x2 = 0.3787 | – | 1315
[2], 293.15 K, x2 = 0.4996 | – | 1273.9
[2], 293.15 K, x2 = 0.6368 | – | 1210.1
[2], 293.15 K, x2 = 0.7624 | – | 1126
[2], 293.15 K, x2 = 0.8787 | – | 1008.7
[2], 293.15 K, x2 = 0.9498 | – | 903.9
[2], 293.15 K, x2 = 0.9799 | – | 847.3
[2], 295.15 K, x2 = 0 | – | 1395.3
[2], 295.15 K, x2 = 0.1273 | – | 1373.2
[2], 295.15 K, x2 = 0.2596 | – | 1345.1
[2], 295.15 K, x2 = 0.3787 | – | 1313.2
[2], 295.15 K, x2 = 0.4996 | – | 1272.1
[2], 295.15 K, x2 = 0.6368 | – | 1208.3
[2], 295.15 K, x2 = 0.7624 | – | 1124.2
[2], 295.15 K, x2 = 0.8787 | – | 1006.9
[2], 295.15 K, x2 = 0.9498 | – | 902.2
[2], 295.15 K, x2 = 0.9799 | – | 845.7
[2], 298.15 K, x2 = 0 | – | 1392.7
[2], 298.15 K, x2 = 0.1273 | – | 1370.6
[2], 298.15 K, x2 = 0.2596 | – | 1342.4
[2], 298.15 K, x2 = 0.3787 | – | 1310.6
[2], 298.15 K, x2 = 0.4996 | – | 1269.4
[2], 298.15 K, x2 = 0.6368 | – | 1205.6
[2], 298.15 K, x2 = 0.7624 | – | 1121.4
[2], 298.15 K, x2 = 0.8787 | – | 1004.3
[2], 298.15 K, x2 = 0.9498 | – | 899.7
[2], 298.15 K, x2 = 0.9799 | – | 843.2
[2], 303.15 K, x2 = 0 | – | 1388.3
[2], 303.15 K, x2 = 0.1273 | – | 1366.2
[2], 303.15 K, x2 = 0.2596 | – | 1338
[2], 303.15 K, x2 = 0.3787 | – | 1306.1
[2], 303.15 K, x2 = 0.4996 | – | 1264.9
[2], 303.15 K, x2 = 0.6368 | – | 1201.1
[2], 303.15 K, x2 = 0.7624 | – | 1117
[2], 303.15 K, x2 = 0.8787 | – | 999.9
[2], 303.15 K, x2 = 0.9498 | – | 895.5
[2], 303.15 K, x2 = 0.9799 | – | 839.1
[2], 308.15 K, x2 = 0 | – | 1384
[2], 308.15 K, x2 = 0.1273 | – | 1361.8
[2], 308.15 K, x2 = 0.2596 | – | 1333.5
[2], 308.15 K, x2 = 0.3787 | – | 1301.6
[2], 308.15 K, x2 = 0.4996 | – | 1260.4
[2], 308.15 K, x2 = 0.6368 | – | 1196.5
[2], 308.15 K, x2 = 0.7624 | – | 1112.5
[2], 308.15 K, x2 = 0.8787 | – | 995.5
[2], 308.15 K, x2 = 0.9498 | – | 891.2
[2], 308.15 K, x2 = 0.9799 | – | 835
[2], 313.15 K, x2 = 0 | – | 1379.6
[2], 313.15 K, x2 = 0.1273 | – | 1357.4
[2], 313.15 K, x2 = 0.2596 | – | 1329.1
[2], 313.15 K, x2 = 0.3787 | – | 1297.2
[2], 313.15 K, x2 = 0.4996 | – | 1255.9
[2], 313.15 K, x2 = 0.6368 | – | 1192
[2], 313.15 K, x2 = 0.7624 | – | 1107.9
[2], 313.15 K, x2 = 0.8787 | – | 991.1
[2], 313.15 K, x2 = 0.9498 | – | 887
[2], 313.15 K, x2 = 0.9799 | – | 830.8
[2], 318.15 K, x2 = 0 | – | 1375.2
[2], 318.15 K, x2 = 0.1273 | – | 1353
[2], 318.15 K, x2 = 0.2596 | – | 1324.7
[2], 318.15 K, x2 = 0.3787 | – | 1292.7
[2], 318.15 K, x2 = 0.4996 | – | 1251.4
[2], 318.15 K, x2 = 0.6368 | – | 1187.4
[2], 318.15 K, x2 = 0.7624 | – | 1103.4
[2], 318.15 K, x2 = 0.8787 | – | 986.7
[2], 318.15 K, x2 = 0.9498 | – | 882.6
[2], 318.15 K, x2 = 0.9799 | – | 826.6
[2], 323.15 K, x2 = 0 | – | 1370.9
[2], 323.15 K, x2 = 0.1273 | – | 1348.6
[2], 323.15 K, x2 = 0.2596 | – | 1320.3
[2], 323.15 K, x2 = 0.3787 | – | 1288.2
[2], 323.15 K, x2 = 0.4996 | – | 1246.9
[2], 323.15 K, x2 = 0.6368 | – | 1182.9
[2], 323.15 K, x2 = 0.7624 | – | 1098.8
[2], 323.15 K, x2 = 0.8787 | – | 982.2
[2], 323.15 K, x2 = 0.9498 | – | 878.3
[2], 323.15 K, x2 = 0.9799 | – | 822.4
[2], 328.15 K, x2 = 0 | – | 1366.6
[2], 328.15 K, x2 = 0.1273 | – | 1344.3
[2], 328.15 K, x2 = 0.2596 | – | 1315.9
[2], 328.15 K, x2 = 0.3787 | – | 1283.8
[2], 328.15 K, x2 = 0.4996 | – | 1242.4
[2], 328.15 K, x2 = 0.6368 | – | 1178.3
[2], 328.15 K, x2 = 0.7624 | – | 1094.3
[2], 328.15 K, x2 = 0.8787 | – | 977.7
[2], 328.15 K, x2 = 0.9498 | – | 873.9
[2], 328.15 K, x2 = 0.9799 | – | 818
[2], 333.15 K, x2 = 0 | – | 1362.3
[2], 333.15 K, x2 = 0.1273 | – | 1339.9
[2], 333.15 K, x2 = 0.2596 | – | 1311.5
[2], 333.15 K, x2 = 0.3787 | – | 1279.4
[2], 333.15 K, x2 = 0.4996 | – | 1237.9
[2], 333.15 K, x2 = 0.6368 | – | 1173.8
[2], 333.15 K, x2 = 0.7624 | – | 1089.7
[2], 333.15 K, x2 = 0.8787 | – | 973.1
[2], 333.15 K, x2 = 0.9498 | – | 869.5
[2], 333.15 K, x2 = 0.9799 | – | 813.7
